Test results: ChEMBL document CHEMBL1201862, “PubChem BioAssay data set” (2004)
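Interpolation was linear, between the two tested concentrations surrounding the appropriate level; five concentrations were tested over 48 hours in 96-well plates. The concentration for 50% growth inhibition is given as GI50.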 Activity calls are given as the source filed them. No stated cut-off is given here; in the data, active = GI50 up to about 1.1 µM and inactive = higher.

What was measured:
Assay in all cases: NCI anticancer screen, dose series, 48 h
[1] = tested on: 786-0
[2] = tested on: A549
[3] = tested on: ACHN
[4] = tested on: COLO 205
[5] = tested on: DU-145
[6] = tested on: EKVX
[7] = tested on: HCC 2998
[8] = tested on: HCT-116
[9] = tested on: HCT-15
[10] = tested on: HL-60
[11] = tested on: HOP-62
[12] = tested on: HOP-92
[13] = tested on: HT-29
[14] = tested on: IGROV-1
[15] = tested on: K562
[16] = tested on: KM12
[17] = tested on: M14
[18] = tested on: NCI-H23
[19] = tested on: NCI-H522
[20] = tested on: OVCAR-3
[21] = tested on: OVCAR-5
[22] = tested on: OVCAR-8
[23] = tested on: PC-3
[24] = tested on: RXF 393
[25] = tested on: SF-268
[26] = tested on: SF-539
[27] = tested on: SK-MEL-28
[28] = tested on: SK-MEL-2
[29] = tested on: SNB-19
[30] = tested on: SNB-75
[31] = tested on: SR
[32] = tested on: SW-620
[33] = tested on: T47D
[34] = tested on: TK-10
[35] = tested on: UACC-257
[36] = tested on: UACC-62
[37] = tested on: UO-31
[38] = tested on: A498
[39] = tested on: CAKI-1
[40] = tested on: CCRF-CEM
[41] = tested on: LOX IMVI
[42] = tested on: MDA-MB-231
[43] = tested on: MOLT-4
[44] = tested on: NCI-H460
[45] = tested on: NCI/ADR-RES
[46] = tested on: OVCAR-4
[47] = tested on: RPMI-8226
[48] = tested on: SF-295
[49] = tested on: SK-MEL-5
[50] = tested on: SK-OV-3
[51] = tested on: U-251

Measured: GI50

COc1cc([C@@H]2c3cc4c(cc3[C@@H](Nc3ccc(NC(=O)c5cc([N+](=O)[O-])cn5C)cc3)[C@H]3COC(=O)[C@H]23)OCO4)cc(OC)c1O
0.307 µM: [9]
active: [1] 0.0627 µM | [2] 0.0195 µM | [3] < 0.0108 µM | [4] 0.219 µM | [5] < 0.013 µM | [6] 0.658 µM | [7] 0.223 µM | [8] 0.138 µM | [10] < 0.0213 µM | [11] 0.0198 µM | [12] 0.0796 µM | [13] 0.195 µM | [14] 0.265 µM | [15] 0.132 µM | [16] 0.216 µM | [17] 0.0771 µM | [18] 0.0401 µM | [19] 0.291 µM | [20] 0.449 µM | [21] 0.468 µM | [22] 0.11 µM | [23] 0.143 µM | [24] 0.352 µM | [25] 0.118 µM | [26] 0.0617 µM | [27] 0.621 µM | [28] 0.938 µM | [29] 0.054 µM | [30] 0.0614 µM | [31] < 0.01 µM | [32] 0.162 µM | [33] 0.0134 µM | [34] 0.479 µM | [35] 0.658 µM | [36] 0.0612 µM | [37] 0.231 µM

C[C@@H](C(=O)O)c1ccc(-c2ccccc2)c(F)c1 [TARENFLURBIL]
inactive: [1] > 100 µM | [38] > 100 µM | [3] > 100 µM | [39] > 100 µM | [40] > 100 µM | [4] > 100 µM | [5] > 100 µM | [7] > 100 µM | [8] > 100 µM | [12] > 100 µM | [13] > 100 µM | [14] > 100 µM | [15] > 100 µM | [16] > 100 µM | [41] > 100 µM | [17] > 100 µM | [42] > 100 µM | [43] > 100 µM | [18] > 100 µM | [44] > 100 µM | [45] > 100 µM | [20] > 100 µM | [46] > 100 µM | [21] > 100 µM | [22] > 100 µM | [23] > 100 µM | [47] > 100 µM | [24] > 100 µM | [48] > 100 µM | [49] > 100 µM | [50] > 100 µM | [29] > 73.6 µM | [31] > 100 µM | [32] > 100 µM | [33] > 100 µM | [34] > 100 µM | [51] > 100 µM | [35] > 100 µM | [36] > 100 µM | [37] > 71.9 µM
